Data as given in patent US20260176289A1, “SMALL MOLECULE INHIBITORS OF KRAS PROTEINS” (Merck Sharp & Dohme LLC, priority 2022, published 2026).

Legend:
KRAS-WT = KRAS-WT (Homo sapiens, UniProt P01116); test: SOS-catalyzed nucleotide exchange assay (Procedure A, TR-FRET), KRAS-WT; type: biochemical; conditions: nucleotide exchange, read-out: KRAS WT GNE IC50
Method in brief: (§1)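 Inhibitors stabilizing the Bodipy-GDP state are detected as retained TR-FRET from a preformed biotinylated RAS/Tb-streptavidin complex. They are preincubated 60 min at room temperature, then human SOS and 3 mM GTP are added. G12V runs 90 min at 1.25 nM RAS/160 nM SOS. G12C (3 nM), WT (1 nM) and NRAS (1.25 nM) run 60 min with 40 nM SOS.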

KRAS-G12D = KRAS-G12D (Homo sapiens, UniProt P01116, G12D); test: SOS-catalyzed nucleotide exchange assay (Procedure A, TR-FRET), KRAS-G12D; type: biochemical; conditions: nucleotide exchange, read-out: KRAS G12D GNE IC50
Chain of KRAS-G12D (P01116 with tags, fused parts or gaps isoform P01116-2 G12D): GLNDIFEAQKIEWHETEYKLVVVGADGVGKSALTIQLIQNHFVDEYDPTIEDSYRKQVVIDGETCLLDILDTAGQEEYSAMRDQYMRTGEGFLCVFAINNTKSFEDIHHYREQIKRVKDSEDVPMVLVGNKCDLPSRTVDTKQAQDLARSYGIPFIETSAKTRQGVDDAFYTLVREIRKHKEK
Method in brief: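 Signal ratio (520/495 nm, excitation 340 nm) reports Bodipy-GDP retention on biotinylated RAS after SOS-catalyzed exchange with 3 mM GTP. SOS was 40 nM, except 160 nM for G12V. Room-temperature exchange lasted 60 min (90 min for G12V), following a 60 min compound preincubation.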

KRAS-G12V = KRAS-G12V (Homo sapiens, UniProt P01116, G12V); test: SOS-catalyzed nucleotide exchange assay (Procedure A, TR-FRET), KRAS-G12V; type: biochemical; conditions: nucleotide exchange, read-out: KRAS G12V GNE IC50
Chain of KRAS-G12V (P01116 with tags, fused parts or gaps isoform P01116-2 G12V): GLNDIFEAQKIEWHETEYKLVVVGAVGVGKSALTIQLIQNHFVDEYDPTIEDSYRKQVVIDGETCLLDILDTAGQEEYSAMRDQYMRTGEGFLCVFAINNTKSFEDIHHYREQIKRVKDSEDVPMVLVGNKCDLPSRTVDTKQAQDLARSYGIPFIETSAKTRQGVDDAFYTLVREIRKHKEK
Method in brief: as §1

MKN-1 cells = test: Cellular phospho-ERK assay, MKN-1 cells (amplified wild-type KRAS); type: cell-based; conditions: Homo sapiens, amplified wild-type KRAS, 2 hours, read-out: MKN1 pERK IC50
Description: (§2) Procedure for Cellular Phospho-ERK Assay in KRAS Wild Type and Mutant (G12D, G12V) Cell Lines
(§3) MKN-1 cells (JCRB JCRB0252) containing amplified wild-type KRAS, were cultured in growth medium that contains RPMI 1640-GlutaMAX™-I (ThermoFisher Scientific 61870) containing 10% heat inactivated fetal bovine serum (ThermoFisher Scientific 10091148), 1 mM sodium pyruvate and 10 mM HEPES. PANC08.13 cells (ATCC® CRL-2551™), containing homozygous KRAS-G12D activating mutation, were cultured in growth medium made of RPMI1640-GlutaMAX™-I (ThermoFisher Scientific 61870) containing 15% heat inactivated fetal bovine serum (ThermoFisher Scientific 10091148)). AsPC-1 cells (ATCC® CRL-1682™), containing homozygous KRAS-G12D activating mutation, were cultured in T150 flask in growth medium (RPMI medium 1640-GlutaMAX™-I (ThermoFisher Scientific 61870) containing 10% fetal bovine serum (ThermoFisher Scientific 10091148)). SW620 cells (ATCC® […]), containing homozygous KRAS-G12V activating mutation, were cultured in growth medium that contains RPMI 1640-GlutaMAX™-I (ThermoFisher Scientific 61870) containing 10% heat inactivated fetal bovine serum (ThermoFisher Scientific 10091148).
(§4) Cells for the assay were harvested in growth medium after TrypLE (ThermoFisher scientific 12604021) digestion and were seeded in a 384-well collagen coated cell culture plate (Corning 356702) at a density of 10,000-15,000 cells/20 μL/well, and incubated at 37° C., 5% CO2 overnight. The compound (with 10 mM stock concentration) dose-response titrations were prepared [30 μM final ERK detection assay concentration and 1:3 dilutions, 10-point dose response] and appropriate amounts (270 nL) of test compounds were dispensed in a 384-well intermediate plate using an Echo 550 liquid handler. 30 μL/well of RPMI medium 1640-GlutaMAX™—I was added to the intermediate plate and the contents of the intermediate plate (10 μL/well) were then transferred to the 384-well collagen coated cell culture plate, which was incubated at 37° C., 5% CO2 for 2 hours. After removal of medium from the collagen coated cell culture plate, cells were lysed in lysis buffer from Alpha SureFire® Ultra™ Multiplex p-ERK and total ERK assay kit (PerkinElmer MPSU-PTERK) containing Halt™ Protease and Phosphatase inhibitor cocktail (ThermoFisher Scientific 78446) at room temperature with constant shaking at 300 rpm for 30 minutes. The cell lysates were then transferred to an OptiPlate-384 plate (PerkinElmer 6005620), and the phosphorylation of ERK (p-ERK) and total ERK levels were detected by Alpha SureFire® Ultra™ Multiplex p-EEK kit and total ERK assay kit (PerkinElmer MPSU-PTERK) following the manufacturer's protocol. Assay plates were read on a En Vision Multimode Plate Reader (PerkinElmer), and the ratio of p-ERK vs. total ERK in each well was used as the final readout. Dose response curves were analyzed using a 4-parameter logistic model to calculate IC50 values using Spotfire software.

AsPC-1 cells = test: Cellular phospho-ERK assay, AsPC-1 cells (homozygous KRAS-G12D); type: cell-based; conditions: Homo sapiens, ASPC1, 2 h, KRAS-G12D, 2 hours, read-out: AsPC1 pERK IC50
Method in brief: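 Overnight-plated cells on collagen received test compound (up to 30 μM final, threefold steps, ten concentrations) for two hours. After lysis at room temperature, phosphorylated and total ERK were quantified together by Alpha SureFire, and IC50 is based on the phospho-to-total signal ratio.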

SW620 cells = test: Cellular phospho-ERK assay, SW620 cells (homozygous KRAS-G12V); type: cell-based; conditions: Homo sapiens, SW-620, KRAS-G12V, 2 hours, read-out: SW620 pERK IC50
Description: as §2, §3, §4

Chain of KRAS-WT (P01116 with tags, fused parts or gaps isoform P01116-2): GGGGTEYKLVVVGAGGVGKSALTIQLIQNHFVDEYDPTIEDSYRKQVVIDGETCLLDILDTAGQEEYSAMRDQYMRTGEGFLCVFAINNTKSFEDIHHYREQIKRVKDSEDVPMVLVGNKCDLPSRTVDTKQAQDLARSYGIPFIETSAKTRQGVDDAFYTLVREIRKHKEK

| SMILES | IC50 (KRAS-WT) [nM] | IC50 (KRAS-G12D) [nM] | IC50 (KRAS-G12V) [nM] | IC50 (MKN-1 cells) [nM] | IC50 (AsPC-1 cells) [nM] | IC50 (SW620 cells) [nM] |
| --- | --- | --- | --- | --- | --- | --- |
| C/C=C/c1c(C)cc2[nH]ncc2c1-c1nccc2c1sc1nc(OC[C@@]34CCCN3C[C@H](F)C4)nc(N3CCOC[C@@](C)(O)C3)c12 [Ex-64, (6S)-4-(2-(((2R,7aS)-2-fluorotetrahydro-1H-pyrrolizin-7a(5H)-yl)methoxy)-8-(6-methyl-5-((E)-prop-1-en-1-yl)-1H-indazol-4-yl)pyrido[4′,3′:4,5]thieno [2,3-d]pyrimidin-4-yl)-6-methyl-1,4-oxazepan-6-ol] | 250 | 99.1 | 163 | 389 | 486 | 294 |
| C[C@@]1(O)COCCN(c2nc(OC[C@@]34CCCN3C[C@H](F)C4)nc3sc4c(-c5c(C6=CCC6)c(Cl)cc6[nH]ncc56)nccc4c23)C1 [Ex-70, (6S)-4-(8-(6-chloro-5-(cyclobut-1-en-1-yl)-1H-indazol-4-yl)-2-(((2R,7aS)-2-fluorotetrahydro-1H-pyrrolizin-7a(5H)-yl)methoxy)pyrido[4′,3′:4,5]thi-eno[2,3-d]pyrimidin-4-yl)-6-methyl-1,4-oxazepan-6-ol] | 33.8 | 6.5 | 19.6 | 61.8 | 95.1 | 29.6 |
| C[C@@]1(O)COCCN(c2nc(OC[C@@]34CCCN3C[C@H](F)C4)nc3sc4c(-c5c(-c6ccoc6)c(Cl)cc6[nH]ncc56)nccc4c23)C1 [Ex-71, (6S)-4-(8-(6-chloro-5-(furan-3-yl)-1H-indazol-4-yl)-2-(((2R,7aS)-2-fluorotetrahydro-1H-pyrrolizin-7a(5H)-yl)methoxy)pyrido[4′,3′:4,5]thi-eno[2,3-d]pyrimidin-4-yl)-6-methyl-1,4-oxazepan-6-ol] | 17.6 | 4 | 11.5 | 50.2 | 66.4 | 150 |
| Cc1cc2[nH]ncc2c(-c2nccc3c2sc2nc(OC[C@@]45CCCN4C[C@H](F)C5)nc(N4CCOC[C@@](C)(O)C4)c23)c1-c1ccc(F)o1 [Ex-72, (6S)-4-(8-(5-(5-fluorofuran-2-yl)-6-methyl-1H-indazol-4-yl)-2-(((2R,7aS)-2-fluorotetrahydro-1H-pyrrolizin-7a(5H)-yl)methoxy)pyrido[4′,3′:4,5]thi-eno[2,3-d]pyrimidin-4-yl)-6-methyl-1,4-oxazepan-6-ol] | 53.9 | 15 | 35.3 | 82.4 | 139 | 53.8 |
| CN1CCC[C@H]1COc1nc(N2CCOC[C@@](C)(O)C2)c2c(n1)sc1c(-c3c(C4CC4)c(Cl)cc4[nH]ncc34)nccc12 [Ex-80, (6S)-4-(8-(6-chloro-5-cyclopropyl-1H-indazol-4-yl)-2-(((S)-1-methylpyrrolidin-2-yl)methoxy)pyrido[4′,3′:4,5]thi-eno[2,3-d]pyrimidin-4-yl)-6-methy1-1,4-oxazepan-6-ol] | 89 | 32.7 | 42 | 143 | 200 | 131 |
| C[C@@]1(O)COCCN(c2nc(OC[C@@]34CCCN3C/C(=C\F)C4)nc3sc4c(-c5c(C6CC6)c(C(F)(F)F)cc6[nH]ncc56)nccc4c23)C1 [Ex-87, (6S)-4-(8-(5-cyclopropyl-6-(trifluoromethyl)-1H-indazol-4-yl)-2-(((S,Z)-2-(fluoromethylene)tetrahy-dro-1H-pyrrolizin-7a(5H)-yl)methoxy)pyrido[4′,3′:4,5]thi-eno[2,3-d]pyrimidin-4-yl)-6-methyl-1,4-oxazepan-6-ol] | 80 | 41.6 | 31.4 | 109 | 176 | 96.6 |
| C[C@@]1(O)COCCN(c2nc(OC[C@@]34CCCN3C[C@H](F)C4)nc3sc4c(-c5c6c(cc7[nH]ncc57)CCC65CC5)nccc4c23)C1 [Ex-88, (6S)-4-(8-(6,7-dihydro-1H-spiro[cyclopenta[f]indazole-5,1′-cyclopropan]-4-yl)-2-(((2R,7aS)-2-fluorotetrahydro-1H-pyrrolizin-7a(5H)-yl)methoxy)pyrido[4′,3′:4,5]thi-eno[2,3-d]pyrimidin-4-yl)-6-methyl-1,4-oxazepan-6-ol] | 37.2 | 18.5 | 42.5 | 122 | 159 | 36.1 |
| C[C@@]1(O)COCCN(c2nc(OC[C@@]34CCCN3C[C@H](F)C4)nc3sc4c(-c5c6c(cc7[nH]ncc57)CC5CC65)nccc4c23)C1 (stereo partly drawn) [Ex-90, (6S)-4-(2-(((2R,7aS)-2-fluorotetrahydro-1H-pyrrolizin-7a(5H)-yl)methoxy)-8-(4b,5,5a,6-tetrahydro-1H-cyclopropa[4,5]cyclopen-ta[1,2-f]indazol-4-yl)pyrido[4′,3′:4,5]thieno [2,3-d]pyrimidin-4-yl)-6-methyl-1,4-oxazepan-6-ol] | 152 | 48.8 | 85 | 174 | 311 | 193 |
| CCC1(F)c2c(cc3[nH]ncc3c2-c2nccc3c2sc2nc(OC[C@@]45CCCN4C[C@H](F)C5)nc(N4CCOC[C@@](C)(O)C4)c23)CC1(F)F (stereo partly drawn) [Ex-98, (6S)-4-(8-(5-ethy1-5,6,6-trifluoro-1,5,6,7-tetrahydrocyclopenta[f]in-dazol-4-yl)-2-(((2R,7aS)-2-fluorotetrahydro-1H-pyrrolizin-7a(5H)-yl)methoxy)pyrido[4′,3′:4,5]thi-eno[2,3-d]pyrimidin-4-yl)-6-methyl-1,4-oxazepan-6-ol] | 61.3 | 18.9 | 20.8 | 72.8 | 175 | 68.8 |
| C[C@@]1(O)COCCN(c2nc(OC[C@@]34CCCN3C[C@H](F)C4)nc3sc4c(-c5c6c(cc7[nH]ncc57)CC=C6C5CC5)nccc4c23)C1 [Ex-105, (6S)-4-(8-(5-cyclopropyl-1,7-dihydrocyclopenta[f]inda-zol-4-yl)-2-(((2R,7aS)-2-fluorotetrahydro-1H-pyrrolizin-7a(5H)-yl)methoxy)pyrido[4′,3′:4,5]thieno[2,3-d]pyrimidin-4-yl)-6-methyl-1,4-oxazepan-6-ol] | 72.2 | 26.7 | 37.2 | 136 | 158 | 80.5 |
